Experimental data reported in patent US20160237059A1, “HETEROCYCLIC SUBSTITUTED TRIFLUOROMETHYL PYRIMIDINONES AND THEIR USE” (BAYER PHARMA AKTIENGESELLSCHAFT, priority 2013, published 2016).
pIC50: −log10 of the molar value.

Legend:
Type in all cases: cell-based
murine CCR2 [1] = biological target: T1, murine CCR2 (Mus musculus, UniProt P51683); test: Functional β-arrestin recruiting test with human MCP-1 (B-2a); settings: U2OS β-arrestin cell line transfected with murine CCR2; agonist human MCP-1 at EC50 (about 3 nM); in some cases means of several determinations
T1 construct: host or cells: U2OS β-arrestin cell line
Procedure, shortened: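 Antagonist mode in U2OS cells expressing murine CCR2, read by PathHunter β-galactosidase complementation luminescence. Cells pre-incubated 10 min with 10-point compound dilutions (1:3.16 steps), then stimulated with human MCP-1 at its EC50 (usually about 3 nM) for 90 min at 37° C.; IC50 from 4-parameter logistic fit.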

human CCR2 = biological target: T2, human CCR2 (Homo sapiens, UniProt P41597); test: Functional Ca2+ release test (B-1); settings: Chem-1 cell line transfected with human CCR2; 50% inhibition of the MCP-1 effect, MCP-1 at EC50 (about 5 nM); in some cases means of several determinations
T2 construct: host or cells: Chem-1 cell line
T2 sequence (P41597 1-360 isoform P41597-2): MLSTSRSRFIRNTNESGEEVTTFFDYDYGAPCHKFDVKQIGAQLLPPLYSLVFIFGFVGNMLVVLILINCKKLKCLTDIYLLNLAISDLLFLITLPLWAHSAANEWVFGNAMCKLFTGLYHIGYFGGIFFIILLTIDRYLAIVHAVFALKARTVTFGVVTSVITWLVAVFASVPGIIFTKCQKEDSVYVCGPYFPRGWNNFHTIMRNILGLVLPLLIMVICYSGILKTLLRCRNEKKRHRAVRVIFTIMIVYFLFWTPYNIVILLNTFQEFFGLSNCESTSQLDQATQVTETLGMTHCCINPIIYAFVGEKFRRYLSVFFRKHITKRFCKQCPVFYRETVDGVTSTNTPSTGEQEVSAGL
Procedure, shortened: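 Chem-1 cells expressing human CCR2, loaded with Fluo-4 for 60 min at 37° C, were preincubated 10 min with compound (10-point, 1:3.16 dilutions), then stimulated with MCP-1 at its predetermined EC50 (about 5 nM). Ca2+ release was monitored for 120 s. IC50 came from a 4-parameter Hill fit.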

murine CCR2 [2] = biological target: T1, murine CCR2; test: Functional β-arrestin recruiting test with murine MCP-1 (B-2b); settings: U2OS β-arrestin cell line transfected with murine CCR2; agonist murine MCP-1; in some cases means of several determinations
Procedure, shortened: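 In a PathHunter β-galactosidase complementation assay, U2OS cells expressing murine CCR2 were preincubated 10 min with compound (10-point, 1:3.16 dilutions), then challenged with murine MCP-1 at its predetermined EC50 for 90 min at 37 °C. Luminescence was read after 60 min, and IC50 was fitted with a 4-parameter Hill function.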

T1 sequence (P51683 whole entry): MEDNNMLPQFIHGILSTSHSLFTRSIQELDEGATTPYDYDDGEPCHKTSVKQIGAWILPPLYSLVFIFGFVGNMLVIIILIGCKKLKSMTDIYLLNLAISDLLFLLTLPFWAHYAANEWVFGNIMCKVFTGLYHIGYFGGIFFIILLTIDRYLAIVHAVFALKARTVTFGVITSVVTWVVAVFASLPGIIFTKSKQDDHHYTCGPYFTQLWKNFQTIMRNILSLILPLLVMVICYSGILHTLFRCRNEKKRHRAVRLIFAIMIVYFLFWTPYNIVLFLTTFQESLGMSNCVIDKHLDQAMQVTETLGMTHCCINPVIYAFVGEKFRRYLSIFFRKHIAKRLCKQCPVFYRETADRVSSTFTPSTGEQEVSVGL

5-(3,4-dichlorobenzyl-2-(3-methoxypyridin-2-yl)-6-(trifluoromethyl)pyrimidin-4(3H)-one [Example 23]
pIC50 (murine CCR2 [1]): 7.60 | pIC50 (human CCR2): 9.40 | pIC50 (murine CCR2 [2]): 6.87

O=c1[nH]c(-c2ccccn2)nc(C(F)(F)F)c1Oc1ccc(F)c(Cl)c1 [Example 2, 5-(3-chloro-4-fluorophenoxy)-2-(pyridin-2-yl)-6-(trifluoromethyl)pyrimidin-4(3H)-one]
pIC50 (murine CCR2 [1]): 7.06 | pIC50 (human CCR2): 8.35 | pIC50 (murine CCR2 [2]): 5.98

O=c1[nH]c(-c2ccccn2)nc(C(F)(F)F)c1Oc1ccc(Cl)c(Cl)c1 [Example 3, 5-(3,4-dichlorophenoxy)-2-(pyridin-2-yl)-6-(trifluoromethyl)pyrimidin-4(3H)-one]
pIC50 (murine CCR2 [1]): 7.51 | pIC50 (human CCR2): 8.92 | pIC50 (murine CCR2 [2]): 6.69

O=c1[nH]c(-c2ncc(F)cc2F)nc(C(F)(F)F)c1Oc1ccc(Cl)c(Cl)c1 [Example 4, 5-(3,4-dichlorophenoxy)-2-(3,5-difluoropyridin-2-yl)-6-(trifluoromethyl)pyrimidin-4(3H)-one]
pIC50 (murine CCR2 [1]): 7.06 | pIC50 (human CCR2): 8.54 | pIC50 (murine CCR2 [2]): 6.42

O=c1[nH]c(-c2ncccc2Cl)nc(C(F)(F)F)c1Oc1ccc(Cl)c(Cl)c1 [Example 5, 2-(3-chloropyridin-2-yl)-5-(3,4-dichlorophenoxy)-6-(trifluoromethyl)pyrimidin-4(3H)-one]
pIC50 (murine CCR2 [1]): 7.89 | pIC50 (human CCR2): 9.00 | pIC50 (murine CCR2 [2]): 7.30

Cc1ccc(-c2nc(C(F)(F)F)c(Oc3ccc(Cl)c(Cl)c3)c(=O)[nH]2)nc1 [Example 7, 5-(3,4-dichlorophenoxy)-2-(5-methylpyridin-2-yl)-6-(trifluoromethyl)pyrimidin-4(3H)-one]
pIC50 (murine CCR2 [1]): 6.92 | pIC50 (human CCR2): 8.66 | pIC50 (murine CCR2 [2]): 6.36

O=c1[nH]c(-c2ncccc2Cl)nc(C(F)(F)F)c1Oc1ccc(Cl)c(F)c1 [Example 11, 5-(4-chloro-3-fluorophenoxy)-2-(3-chloropyridin-2-yl)-6-(trifluoromethyl)pyrimidin-4(3H)-one]
pIC50 (murine CCR2 [1]): 7.55 | pIC50 (human CCR2): 8.37 | pIC50 (murine CCR2 [2]): 6.71

O=c1[nH]c(-c2ncccc2Cl)nc(C(F)(F)F)c1Oc1ccc(F)c(Cl)c1 [Example 14, 5-(3-chloro-4-fluorophenoxy)-2-(3-chloropyridin-2-yl)-6-(trifluoromethyl)pyrimidin-4(3H)-one]
pIC50 (murine CCR2 [1]): 7.60 | pIC50 (human CCR2): 7.96 | pIC50 (murine CCR2 [2]): 6.59

COc1cccc(Nc2nc(C(F)(F)F)c(Oc3ccc(Cl)c(C(F)(F)F)c3)c(=O)[nH]2)n1 [Example 100, 5-[4-Chloro-3-(trifluoromethyl)phenoxy]-2-[(6-methoxypyridin-2-yl)amino]-6-(trifluoromethyl)pyrimidin-4(3H)-one]
pIC50 (murine CCR2 [1]): 6.04 | pIC50 (human CCR2): 7.19

COc1cccc(Nc2nc(C(F)(F)F)c(Oc3ccc(Cl)c(Cl)c3)c(=O)[nH]2)n1 [Example 101, 5-(3,4-dichlorophenoxy)-2-[(6-methoxypyridin-2-yl)amino]-6-(trifluoromethyl)pyrimidin-4(3H)-one]
pIC50 (murine CCR2 [1]): 4.96 | pIC50 (human CCR2): 6.37

COc1cccnc1Nc1nc(C(F)(F)F)c(Oc2ccc(Cl)c(Cl)c2)c(=O)[nH]1 [Example 102, 5-(3,4-dichlorophenoxy)-2-[(3-methoxypyridin-2-yl)amino]-6-(trifluoromethyl)pyrimidin-4(3H)-one]
pIC50 (murine CCR2 [1]): 6.59 | pIC50 (human CCR2): 6.82

COc1cccnc1Nc1nc(C(F)(F)F)c(Oc2ccc(Cl)c(C(F)(F)F)c2)c(=O)[nH]1 [Example 103, 5-[4-chloro-3-(trifluoromethyl)phenoxy]-2-[(3-methoxypyridin-2-yl)amino]-6-(trifluoromethyl)pyrimidin-4(3H)-one]
pIC50 (murine CCR2 [1]): 6.43 | pIC50 (human CCR2): 7.30

O=c1[nH]c(Nc2cn[nH]c2)nc(C(F)(F)F)c1Oc1ccc(Cl)c(C(F)(F)F)c1 [Example 104, 5-[4-Chloro-3-(trifluoromethyl)phenoxy]-2-(1H-pyrazol-4-ylamino)-6-(trifluoromethyl)pyrimidin-4(3H)-one]
pIC50 (murine CCR2 [1]): 6.80 | pIC50 (human CCR2): 8.03

O=c1[nH]c(Nc2cn[nH]c2)nc(C(F)(F)F)c1Cc1ccc(Cl)c(C(F)(F)F)c1 [Example 105]
pIC50 (murine CCR2 [1]): 6.42 | pIC50 (human CCR2): 7.39

Cn1cnc(Nc2nc(C(F)(F)F)c(Oc3ccc(Cl)c(Cl)c3)c(=O)[nH]2)n1 [Example 106, 5-(3,4-dichlorophenoxy)-2-[(1-methyl-1H-1,2,4-triazol-3-yl)amino]-6-(trifluoromethyl)pyrimidin-4(3H)-one]
pIC50 (murine CCR2 [1]): 5.85 | pIC50 (human CCR2): 6.74

Cc1cc(Nc2nc(C(F)(F)F)c(Oc3ccc(Cl)c(Cl)c3)c(=O)[nH]2)on1 [Example 109]
pIC50 (murine CCR2 [1]): 6.32 | pIC50 (human CCR2): 7.23

Cn1cc(Nc2nc(C(F)(F)F)c(Oc3ccc(Cl)c(Cl)c3)c(=O)[nH]2)cn1 [Example 110, 5-(3,4-dichlorophenoxy)-2-[(1-methyl-1H-pyrazol-4-yl)amino]-6-(trifluoromethyl)pyrimidin-4(3H)-one]
pIC50 (murine CCR2 [1]): 6.14 | pIC50 (human CCR2): 7.39

O=C1NCCN1c1nc(C(F)(F)F)c(Cc2ccc(Cl)c(Cl)c2)c(=O)[nH]1 [Example 111, 5-(3,4-Dichlorobenzyl)-2-(2-oxoimidazolidin-1-yl)-6-(trifluoromethyl)pyrimidin-4(3H)-one]
pIC50 (murine CCR2 [1]): 6.44 | pIC50 (human CCR2): 7.23

O=C1OCCN1c1nc(C(F)(F)F)c(Cc2ccc(Cl)c(Cl)c2)c(=O)[nH]1 [Example 112, 5-(3,4-Dichlorobenzyl)-2-(2-oxo-1,3-oxazolidin-3-yl)-6-(trifluoromethyl)pyrimidin-4(3H)-one]
pIC50 (murine CCR2 [1]): 6.42 | pIC50 (human CCR2): 7.57

O=c1[nH]c(CC2CCOCC2)nc(C(F)(F)F)c1Cc1ccc(Cl)c(Cl)c1 [Example 171]
pIC50 (murine CCR2 [1]): 6.00 | pIC50 (human CCR2): 6.40

O=c1[nH]c(Cc2cccs2)nc(C(F)(F)F)c1Cc1ccc(Cl)c(Cl)c1 [Example 172]
pIC50 (murine CCR2 [1]): 6.85 | pIC50 (human CCR2): 7.21

O=c1[nH]c(Cn2cncn2)nc(C(F)(F)F)c1Cc1ccc(Cl)c(Cl)c1 [Example 173, 5-(3,4-dichlorobenzyl)-2-(1H-1,2,4-triazol-1-ylmethyl)-6-(trifluoromethyl)pyrimidin-4(3H)-one]
pIC50 (murine CCR2 [1]): 6.01 | pIC50 (human CCR2): 6.59

Cc1nc(Cc2nc(C(F)(F)F)c(Cc3ccc(Cl)c(Cl)c3)c(=O)[nH]2)cs1 [Example 174, 5-(3,4-dichlorobenzyl)-2-[(2-methyl-1,3-thiazol-4-yl)methyl]-6-(trifluoromethyl)pyrimidin-4(3H)-one]
pIC50 (murine CCR2 [1]): 5.96 | pIC50 (human CCR2): 6.82

O=c1[nH]c(N2CCCC2)nc(C(F)(F)F)c1Cc1ccc(Cl)c(Cl)c1 [Example 175, 5-(3,4-dichlorobenzyl)-2-(pyrrolidin-1-yl)-6-(trifluoromethyl)pyrimidin-4(3H)-one]
pIC50 (murine CCR2 [1]): 5.85 | pIC50 (human CCR2): 6.44

CCOC(=O)C1CCN(c2nc(C(F)(F)F)c(Cc3ccc(Cl)c(Cl)c3)c(=O)[nH]2)CC1 [Example 176, ethyl 1-[5-(3,4-dichlorobenzyl)-6-oxo-4-(trifluoromethyl)-1,6-dihydropyrimidin-2-yl]piperidine-4-carboxylate]
pIC50 (murine CCR2 [1]): 6.34 | pIC50 (human CCR2): 7.35

COc1ccc2nc(-c3nc(C(F)(F)F)c(Oc4ccc(Cl)c(Cl)c4)c(=O)[nH]3)ccc2c1 [Example 177, 5-(3,4-dichlorophenoxy)-2-(6-methoxyquinolin-2-yl)-6-(trifluoromethyl)pyrimidin-4(3H)-one]
pIC50 (murine CCR2 [1]): 5.82 | pIC50 (human CCR2): 7.29

O=c1[nH]c(-c2ccc3ccccc3n2)nc(C(F)(F)F)c1Oc1ccc(Cl)c(Cl)c1 [Example 178]
pIC50 (murine CCR2 [1]): 6.27 | pIC50 (human CCR2): 7.48

O=c1[nH]c(NC2CCOC2)nc(C(F)(F)F)c1Oc1ccc(Cl)c(Cl)c1 (stereo not shown) [Example 245]
pIC50 (murine CCR2 [1]): 5.85 | pIC50 (human CCR2): 6.80

CCOC(=O)c1nc(-c2nc(C(F)(F)F)c(Oc3ccc(Cl)c(Cl)c3)c(=O)[nH]2)no1 [Example 260, Ethyl 3-[5-(3,4-dichlorophenoxy)-6-oxo-4-(trifluoromethyl)-1,6-dihydropyrimidin-2-yl]-1,2,4-oxadiazole-5-carboxylate x N,N-diisopropylethylamine]
pIC50 (murine CCR2 [1]): 6.92 | pIC50 (human CCR2): 7.89

O=c1[nH]c(CN2CCOCC2)nc(C(F)(F)F)c1Cc1ccc(Cl)c(Cl)c1 [Example 261, 5-(3,4-Dichlorobenzyl)-2-(morpholin-4-ylmethyl)-6-(trifluoromethyl)pyrimidin-4(3H)-one]
pIC50 (murine CCR2 [1]): 6.20 | pIC50 (human CCR2): 6.44

Cn1nc(Cc2nc(C(F)(F)F)c(Cc3ccc(Cl)c(Cl)c3)c(=O)[nH]2)[nH]c1=O [Example 263, 5-(3,4-Dichlorobenzyl)-2-[(1-methyl-5-oxo-4,5-dihydro-1H-1,2,4-triazol-3-yl)methyl]-6-(trifluoromethyl)pyrimidin-4(3H)-one]
pIC50 (murine CCR2 [1]): 6.17 | pIC50 (human CCR2): 6.74
